Measured values: PubChem BioAssay (NCI)
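Cultured in 96-well plates, cells were exposed to test compound for 48 hours across five concentrations. Here, GI50 denotes the concentration required for 50% inhibition of growth. TGI: concentration producing complete growth inhibition.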

Key:
Assay in all cases: NCI anticancer screen, dose series, 48 h
K-562 leukemia = system: K-562 leukemia
UACC-257 melanoma = system: UACC-257 melanoma
SNB-75 CNS = system: SNB-75 CNS
SK-MEL-5 melanoma = system: SK-MEL-5 melanoma
SNB-19 CNS = system: SNB-19 CNS
HCT-116 colon = system: HCT-116 colon
SK-OV-3 ovarian = system: SK-OV-3 ovarian
HCC-2998 colon = system: HCC-2998 colon
A498 renal = system: A498 renal
ACHN renal = system: ACHN renal
RPMI-8226 leukemia = system: RPMI-8226 leukemia
HOP-62 NSCLC = system: HOP-62 NSCLC
OVCAR-5 ovarian = system: OVCAR-5 ovarian
EKVX NSCLC = system: EKVX NSCLC
MDA-MB-435 = system: MDA-MB-435
NCI-H23 lung = system: NCI-H23 lung
MCF7 breast = system: MCF7 breast
NCI-H226 lung = system: NCI-H226 lung
HS 578T breast = system: HS 578T breast
UO-31 renal = system: UO-31 renal
OVCAR-8 ovarian = system: OVCAR-8 ovarian
SN12C renal = system: SN12C renal
SF-295 CNS = system: SF-295 CNS
SK-MEL-28 melanoma = system: SK-MEL-28 melanoma
SW-620 colon = system: SW-620 colon
MALME-3M melanoma = system: MALME-3M melanoma
SK-MEL-2 melanoma = system: SK-MEL-2 melanoma
OVCAR-3 ovarian = system: OVCAR-3 ovarian
IGROV1 ovarian = system: IGROV1 ovarian
UACC-62 melanoma = system: UACC-62 melanoma
NCI-H460 lung = system: NCI-H460 lung
NCI-H522 lung = system: NCI-H522 lung
T-47D breast = system: T-47D breast
HCT-15 colon = system: HCT-15 colon
PC-3 prostate = system: PC-3 prostate
COLO 205 colon = system: COLO 205 colon
LOX IMVI melanoma = system: LOX IMVI melanoma
MOLT-4 leukemia = system: MOLT-4 leukemia
KM12 colon = system: KM12 colon
HL-60(TB) leukemia = system: HL-60(TB) leukemia
HOP-92 NSCLC = system: HOP-92 NSCLC
M14 melanoma = system: M14 melanoma
RXF 393 renal = system: RXF 393 renal
SF-268 CNS = system: SF-268 CNS
OVCAR-4 ovarian = system: OVCAR-4 ovarian
DU-145 prostate = system: DU-145 prostate
U251 CNS = system: U251 CNS
CAKI-1 renal = system: CAKI-1 renal
HT29 colon = system: HT29 colon
SR leukemia = system: SR leukemia
A549 NSCLC = system: A549 NSCLC
MDA-MB-231 breast = system: MDA-MB-231 breast
TK-10 renal = system: TK-10 renal
CCRF-CEM leukemia = system: CCRF-CEM leukemia
BT-549 breast = system: BT-549 breast
SF-539 CNS = system: SF-539 CNS
NCI/ADR-RES ovarian = system: NCI/ADR-RES ovarian
786-0 renal = system: 786-0 renal

With COc1c(C(N)=O)cc(-c2ccc(Cl)cc2)cc1-c1ccc(S(N)(=O)=O)cc1 the GI50 (K-562 leukemia) was 7.94 µM, the TGI (K-562 leukemia) was > 20.3 µM and the GI50 (UACC-257 melanoma) was 8.72 µM. The TGI (UACC-257 melanoma) was > 25 µM, the GI50 (SNB-75 CNS) was 7.76 µM and the TGI (SNB-75 CNS) was > 25 µM. The GI50 (SK-MEL-5 melanoma) was 7.4 µM, the TGI (SK-MEL-5 melanoma) was > 25 µM and the GI50 (SNB-19 CNS) was 14 µM. For the same compound, the TGI (SNB-19 CNS) was > 25 µM, the GI50 (HCT-116 colon) was 12.4 µM and the TGI (HCT-116 colon) was > 25 µM. For the same compound, the GI50 (SK-OV-3 ovarian) was > 22 µM, the TGI (SK-OV-3 ovarian) was > 25 µM and the GI50 (HCC-2998 colon) was 11.4 µM. The TGI (HCC-2998 colon) was > 25 µM, the GI50 (A498 renal) was 9.03 µM and the TGI (A498 renal) was > 23.3 µM. The GI50 (ACHN renal) was 10.1 µM, the TGI (ACHN renal) was > 25 µM and the GI50 (RPMI-8226 leukemia) was 9.13 µM. For the same compound, the TGI (RPMI-8226 leukemia) was > 25 µM, the GI50 (HOP-62 NSCLC) was 18.8 µM and the TGI (HOP-62 NSCLC) was > 25 µM. For the same compound, the GI50 (OVCAR-5 ovarian) was 15 µM, the TGI (OVCAR-5 ovarian) was > 25 µM and the GI50 (EKVX NSCLC) was 8.91 µM. The TGI (EKVX NSCLC) was > 25 µM, the GI50 (MDA-MB-435) was 11.4 µM and the TGI (MDA-MB-435) was > 25 µM. For the same compound, the GI50 (NCI-H23 lung) was > 18.3 µM, the TGI (NCI-H23 lung) was > 25 µM and the GI50 (MCF7 breast) was 11.9 µM. The TGI (MCF7 breast) was > 25 µM, the GI50 (NCI-H226 lung) was 9.52 µM and the TGI (NCI-H226 lung) was > 25 µM. The GI50 (HS 578T breast) was 14.4 µM, the TGI (HS 578T breast) was 24.9 µM and the GI50 (UO-31 renal) was 9.95 µM. For the same compound, the TGI (UO-31 renal) was > 23.5 µM, the GI50 (OVCAR-8 ovarian) was 9.33 µM and the TGI (OVCAR-8 ovarian) was > 25 µM. For the same compound, the GI50 (SN12C renal) was 10.5 µM, the TGI (SN12C renal) was > 25 µM and the GI50 (SF-295 CNS) was 11.2 µM. For the same compound, the TGI (SF-295 CNS) was > 25 µM, the GI50 (SK-MEL-28 melanoma) was 16.9 µM and the TGI (SK-MEL-28 melanoma) was > 25 µM. The GI50 (SW-620 colon) was 12 µM, the TGI (SW-620 colon) was > 25 µM and the GI50 (MALME-3M melanoma) was 12.7 µM. For the same compound, the TGI (MALME-3M melanoma) was > 25 µM, the GI50 (SK-MEL-2 melanoma) was 7.89 µM and the TGI (SK-MEL-2 melanoma) was 21 µM. The GI50 (OVCAR-3 ovarian) was 9.79 µM, the TGI (OVCAR-3 ovarian) was > 25 µM and the GI50 (IGROV1 ovarian) was 10.4 µM. The TGI (IGROV1 ovarian) was > 25 µM, the GI50 (UACC-62 melanoma) was 12.8 µM and the TGI (UACC-62 melanoma) was > 25 µM. For the same compound, the GI50 (NCI-H460 lung) was 11.5 µM, the TGI (NCI-H460 lung) was > 25 µM and the GI50 (NCI-H522 lung) was 8.11 µM. The TGI (NCI-H522 lung) was > 20.8 µM, the GI50 (T-47D breast) was 9.71 µM and the TGI (T-47D breast) was > 25 µM. For the same compound, the GI50 (HCT-15 colon) was 9.66 µM, the TGI (HCT-15 colon) was > 25 µM and the GI50 (PC-3 prostate) was 7.08 µM. The TGI (PC-3 prostate) was 24.8 µM, the GI50 (COLO 205 colon) was > 17.6 µM and the TGI (COLO 205 colon) was > 25 µM. For the same compound, the GI50 (LOX IMVI melanoma) was 12.4 µM, the TGI (LOX IMVI melanoma) was > 25 µM and the GI50 (MOLT-4 leukemia) was 8.96 µM. The TGI (MOLT-4 leukemia) was > 20.7 µM, the GI50 (KM12 colon) was 11 µM and the TGI (KM12 colon) was > 25 µM. The GI50 (HL-60(TB) leukemia) was 7.19 µM, the TGI (HL-60(TB) leukemia) was > 17.9 µM and the GI50 (HOP-92 NSCLC) was 3.26 µM. For the same compound, the TGI (HOP-92 NSCLC) was 10.4 µM, the GI50 (M14 melanoma) was > 17.2 µM and the TGI (M14 melanoma) was > 25 µM. The GI50 (RXF 393 renal) was 7.88 µM, the TGI (RXF 393 renal) was > 25 µM and the GI50 (SF-268 CNS) was 8.81 µM. For the same compound, the TGI (SF-268 CNS) was > 25 µM, the GI50 (OVCAR-4 ovarian) was 10.6 µM and the TGI (OVCAR-4 ovarian) was > 25 µM. The GI50 (DU-145 prostate) was 9.29 µM, the TGI (DU-145 prostate) was > 25 µM and the GI50 (U251 CNS) was 9.52 µM. For the same compound, the TGI (U251 CNS) was > 25 µM, the GI50 (CAKI-1 renal) was 10.9 µM and the TGI (CAKI-1 renal) was > 25 µM. For the same compound, the GI50 (HT29 colon) was 11 µM, the TGI (HT29 colon) was > 25 µM and the GI50 (SR leukemia) was 6 µM. The TGI (SR leukemia) was 15.7 µM, the GI50 (A549 NSCLC) was 8.33 µM and the TGI (A549 NSCLC) was > 25 µM. The GI50 (MDA-MB-231 breast) was 10.3 µM, the TGI (MDA-MB-231 breast) was 24.2 µM and the GI50 (TK-10 renal) was 6.65 µM. For the same compound, the TGI (TK-10 renal) was 18.8 µM, the GI50 (CCRF-CEM leukemia) was 8.53 µM and the TGI (CCRF-CEM leukemia) was > 25 µM. The GI50 (BT-549 breast) was 10.5 µM, the TGI (BT-549 breast) was > 25 µM and the GI50 (SF-539 CNS) was 14.2 µM. The TGI (SF-539 CNS) was > 25 µM, the GI50 (NCI/ADR-RES ovarian) was > 17.5 µM and the TGI (NCI/ADR-RES ovarian) was > 25 µM. For the same compound, the GI50 (786-0 renal) was 12.5 µM and the TGI (786-0 renal) was > 25 µM.
